Assay type in all cases: cell-based
Experiment [1] addresses T1, SGLT1 (Homo sapiens, UniProt P13866).
T1 construct: host or cells: CHO
T1 sequence (P13866 1-664): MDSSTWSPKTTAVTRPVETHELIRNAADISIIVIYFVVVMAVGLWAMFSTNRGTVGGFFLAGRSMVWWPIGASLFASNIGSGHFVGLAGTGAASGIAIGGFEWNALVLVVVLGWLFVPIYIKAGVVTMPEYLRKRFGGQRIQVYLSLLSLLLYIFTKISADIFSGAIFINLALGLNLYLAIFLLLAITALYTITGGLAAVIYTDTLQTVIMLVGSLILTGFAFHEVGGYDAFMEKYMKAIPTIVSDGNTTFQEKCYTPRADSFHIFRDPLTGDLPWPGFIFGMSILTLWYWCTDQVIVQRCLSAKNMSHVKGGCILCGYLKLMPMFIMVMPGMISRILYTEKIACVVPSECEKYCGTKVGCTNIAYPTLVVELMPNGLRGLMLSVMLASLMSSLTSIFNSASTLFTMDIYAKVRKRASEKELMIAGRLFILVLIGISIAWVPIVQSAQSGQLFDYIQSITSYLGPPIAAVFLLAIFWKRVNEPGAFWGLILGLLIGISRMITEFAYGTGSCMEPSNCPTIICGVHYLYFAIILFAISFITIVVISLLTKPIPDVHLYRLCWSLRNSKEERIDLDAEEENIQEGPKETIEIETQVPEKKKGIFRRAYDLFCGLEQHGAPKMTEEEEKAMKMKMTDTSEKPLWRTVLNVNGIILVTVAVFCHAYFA
In words: Inhibition of [14C]AMG uptake in CHO-SGLT1 cells. The settings on record: 10 μM [14C]AMG uptake, 2 h, CHO-SGLT1 minus mock; mean ± SD, triplicate. The protocol:
(§1) CHO cells overexpressing SGLT1 and SGLT2 cells (CHO-SGLT1 and -SGLT2) and CHO-mock cells were characterized as previously described. Cells were maintained in RPMI1640 medium supplemented with 10% fetal bovine serum and 200 µg/mL G418 at 37 °C in 5% CO2 conditions. CHO-SGLT1 and -SGLT2 cells were seeded at a density of 1 × 10^5 cells/well in 96-well plates. After 24 h, the growth medium was discarded from the cells, and the cells were washed with pre-warmed Na^+-free buffer (10 mM HEPES, 5 mM Tris, 140 mM choline chloride, 2 mM KCl, 1 mM CaCl2, 1 mM MgCl2, pH7.4) and incubated for 1 h in Na^+-free buffer. After replacing Na^+-free buffer with Na^+ gradient buffer (10 mM HEPES, 5 mM Tris, 140 mM NaCl, 2 mM KCl, 1 mM CaCl2, 1 mM MgCl2, pH7.4) containing 10 µM [^14C]AMG, the uptake of [^14C]AMG into the CHO-mock cells and CHO-SGLT1 and -SLGT2 cells was measured for 0.5, 1, 1.5, 2, and 3 h. After a predetermined incubation time, cells were washed three times with 200 µL of ice-cold Na^+-free buffer immediately after placing the plates on ice. Then, the cells were lysed with 10% SDS, and the cell lysates were mixed with Optiphase cocktail solution. Thereafter, the radioactivity of the cell lysates was measured using a liquid scintillation counter.
(§2) After 2 h, cells were washed three times with 200 µL of ice-cold Na^+-free buffer and the cells were lysed with 10% SDS (40 µL), followed by adding Optiphase cocktail solution (200 µL). The radioactivity of the cell lysates was measured using a liquid scintillation counter. The SGLT1 or SGLT2-mediated uptake of [^14C]AMG was calculated by the subtraction of the uptake rates of [^14C]AMG into the mock cells from those of the CHO-SGLT1 and -SLGT2 cells. In the inhibition studies, the percentages of the transport rate of AMG with or without SGLT2 inhibitors were calculated and the data were fitted to an inhibitory effect model. The IC50 (the concentration of the inhibitor to show half-maximal inhibition) values were calculated using Sigma Plot ver.10.0 (Systat Software, Inc.; San Jose, CA, USA).

The target in experiment [2] is T2, SGLT2 (Homo sapiens, UniProt P31639).
T2 construct: host or cells: CHO
T2 sequence (P31639 1-672): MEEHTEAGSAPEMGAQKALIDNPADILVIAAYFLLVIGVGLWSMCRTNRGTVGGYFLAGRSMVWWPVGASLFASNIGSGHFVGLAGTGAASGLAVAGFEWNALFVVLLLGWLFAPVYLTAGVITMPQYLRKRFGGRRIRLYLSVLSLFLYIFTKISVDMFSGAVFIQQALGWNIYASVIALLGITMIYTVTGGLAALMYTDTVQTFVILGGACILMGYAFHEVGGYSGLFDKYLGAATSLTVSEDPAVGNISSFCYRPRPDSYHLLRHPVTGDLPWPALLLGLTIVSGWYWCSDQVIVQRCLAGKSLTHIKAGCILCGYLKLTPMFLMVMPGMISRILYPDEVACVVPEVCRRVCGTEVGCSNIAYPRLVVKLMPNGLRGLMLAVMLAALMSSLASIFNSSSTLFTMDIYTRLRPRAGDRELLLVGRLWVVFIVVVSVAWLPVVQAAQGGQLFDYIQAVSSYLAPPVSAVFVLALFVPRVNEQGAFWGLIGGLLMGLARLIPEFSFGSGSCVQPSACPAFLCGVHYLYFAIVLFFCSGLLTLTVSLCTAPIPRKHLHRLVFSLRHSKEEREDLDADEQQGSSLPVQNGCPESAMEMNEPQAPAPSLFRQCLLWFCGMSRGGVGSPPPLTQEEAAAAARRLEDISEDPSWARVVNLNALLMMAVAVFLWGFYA
The experiment is described as follows: Inhibition of [14C]AMG uptake in CHO-SGLT2 cells. The settings on record: for IC50: 10 μM [14C]AMG uptake, 2 h, CHO-SGLT2 minus mock, mean ± SD, triplicate. How it is done:
as §1, §2

The target in experiment [3] is T2, SGLT2. The experiment is described as follows: Recovery of SGLT2 activity after washout following 24 h exposure in CHO-SGLT2 cells. The protocol: After 24 h, the RPMI1640 medium was replaced with pre-warmed fresh RPMI1640 medium and incubated for 1, 2, 3, 5, and 6 h, and proceeded another pre-incubation with Na^+-free buffer for 1 h. Then, after replacing Na^+-free buffer with Na^+ gradient buffer containing 10 µM [^14C]AMG, the uptake of [^14C]AMG into the CHO-SGLT2 cells was measured for 2 h. After 2 h of incubation, the radioactivity of the cell lysate was measured following the same sample preparation method described above.

In experiment [1], `OC[C@H]1O[C@@H](c2cc(Cc3ccc(C4CC4)cc3)c(Cl)c3c2CCO3)[C@H](O)[C@@H](O)[C@@H]1O` [DWP16001] registered a half-inhibitory concentration (IC50) of 549 ± 140 nM. In addition, in experiment [2], the “Selectivity (IC50 Ratio of SGLT1/SGLT2)” value was 667 and the IC50 is 0.8 ± 0.3 nM. Besides, the “Time after drug removal at which SGLT2 activity had not recovered” value in experiment [3] (200 nM) turned out to be 8 h.
The compound `OC[C@H]1O[C@@H](c2ccc(F)c(Cc3cc4ccccc4s3)c2)[C@H](O)[C@@H](O)[C@@H]1O` [Ipragliflozin, ipragliflozin] came in with a concentration for half-maximal inhibition (IC50) in experiment [1] of 2330 ± 378 nM. Further, in experiment [2], the “Selectivity (IC50 Ratio of SGLT1/SGLT2)” value worked out at 261 and the half-inhibitory concentration (IC50) came out at 8.9 ± 1.7 nM. In experiment [3] (0.2–200 nM), the “Time after drug removal to recovery of SGLT2 activity to the control level” value is 4 h.

The IC50 is the concentration needed to halve the response being measured. A higher IC50 goes with weaker potency.
